Experiments:
Type in all cases: biochemical
Recombinant human JAK1 = target: T1, Recombinant human JAK1 (Homo sapiens, UniProt P23458); assay: JAK1 Ulight-JAK1 peptide assay; conditions: Ulight-JAK1(tyr1023) peptide, 7 μM ATP
T1 construct: catalytic domain (amino acids 866-1154; catalog number PV4774); purchased Invitrogen PV4774
Protocol: Recombinant human JAK1 (catalytic domain, amino acids 866-1154; catalog number PV4774) was purchased from Invitrogen. 1 ng of JAK1 was incubated with 20 nM Ulight-JAK1(tyr1023) peptide (Perkin Elmer catalog number TRF0121) in kinase reaction buffer (25 mM MOPS pH6.8, 0.01% Brij-35, 5 mM MgCl2, 2 mM DTT, 7 μM ATP) with or without 4 μL containing test compound or vehicle (DMSO, 1% final concentration), in a total volume of 20 μL, in a white 384 Opti plate (Perkin Elmer, catalog number 6007290). After 60 min at room temperature, reactions were stopped by adding 20 μL/well of detection mixture (1× detection buffer (Perkin Elmer, catalog number CR97-100C), 0.5 nM Europium-anti-phosphotyrosine (PT66) (Perkin Elmer, catalog number AD0068), 10 mM EDTA). Readout is performed using the Envision with excitation at 320 nm and measuring emission at 615 nm (Perkin Elmer). Kinase activity was calculated by subtracting relative fluorescence units (RFU) obtained in the presence of a positive control inhibitor (10 μM staurosporine) from RFU obtained in the presence of vehicle. The ability of a test compound to inhibit this activity was determined as: Percentage inhibition=((RFU determined for sample with test compound present−RFU determined for sample with positive control inhibitor)divided by(RFU determined in the presence of vehicle−RFU determined for sample with positive control inhibitor))*100.
(§1) Dose dilution series were prepared for the compounds enabling the testing of dose-response effects in the JAK1 assay and the calculation of the IC50 for the compound. Each compound is routinely tested at concentration of 20 μM followed by a ⅕ serial dilution, 10 points in a final concentration of 1% DMSO. When potency of compound series increases, more dilutions are prepared and/or the top concentration are lowered (e.g. 5 μM, 1 μM). The data are expressed as the average IC50 from the assays±standard error of the mean.

Recombinant human JAK2 = target: T2, Recombinant human JAK2 (Homo sapiens, UniProt O60674); assay: JAK2 Ulight-JAK1 peptide assay; conditions: Ulight-JAK1(tyr1023) peptide, 7.5 μM ATP
T2 construct: catalytic domain (amino acids 808-1132; catalog number PV4210); GST; purchased Invitrogen PV4210
Protocol: Recombinant human JAK2 (catalytic domain, amino acids […]; catalog number PV4210) was purchased from Invitrogen. 0.0125 mU of JAK2 was incubated with 25 nM Ulight-JAK1(tyr1023) peptide (Perkin Elmer catalog number TRF0121) in kinase reaction buffer (25 mM HEPES pH7.0, 0.01% Triton X-100, 7.5 mM MgCl2, 2 mM DTT, 7.5 μM ATP) with or without 4 μL containing test compound or vehicle (DMSO, 1% final concentration), in a total volume of 20 μL, in a white 384 Opti plate (Perkin Elmer, catalog number 6007290). After 60 min at room temperature, reactions were stopped by adding 20 μL/well of detection mixture (1× detection buffer (Perkin Elmer, catalog number CR97-100C), 0.5 nM Europium-anti-phosphotyrosine (PT66) (Perkin Elmer, catalog number AD0068), 10 mM EDTA). Readout is performed using the Envision with excitation at 320 nm and measuring emission at 615 nm (Perkin Elmer). Kinase activity was calculated by subtracting relative fluorescence units (RFU) obtained in the presence of a positive control inhibitor (10 μM staurosporine) from RFU obtained in the presence of vehicle. The ability of a test compound to inhibit this activity was determined as: Percentage inhibition=((RFU determined for sample with test compound present−RFU determined for sample with positive control inhibitor)divided by(RFU determined in the presence of vehicle−RFU determined for sample with positive control inhibitor))*100.
as §1, with “each compound” for “the compounds”, “JAK2” for “JAK1”

[1] = target: T3, Recombinant human JAK3 catalytic domain (Homo sapiens, UniProt P52333); assay: JAK3 inhibition assay; conditions: polyGT substrate, 33P-gamma-ATP filter assay, 1 μM ATP
T3 construct: catalytic domain (amino acids 795-1124; catalog number 08-046); purchased Carna Biosciences 08-046
Protocol: Recombinant human JAK3 catalytic domain (amino acids 795-1124; catalog number 08-046) was purchased from Carna Biosciences. 0.5 ng JAK3 protein was incubated with 2.5 μg polyGT substrate (Sigma catalog number P0275) in kinase reaction buffer (25 mM Tris pH 7.5, 0.5 mM EGTA, 10 mM MgCl2, 2.5 mM DTT, 0.5 mM Na3VO4, 5 mM b-glycerolphosphate, 0.01% Triton X-100, 1 μM non-radioactive ATP, 0.25 μCi ^33P-gamma-ATP (Perkin Elmer, catalog number NEG602K001MC) final concentrations) with or without 5 μL containing test compound or vehicle (DMSO, 1% final concentration), in a total volume of 25 μL, in a polypropylene 96-well plate (Greiner, V-bottom). After 45 min at 30° C., reactions were stopped by adding 25 μL/well of 150 mM phosphoric acid. All of the terminated kinase reaction was transferred to prewashed (75 mM phosphoric acid) 96 well filter plates (Perkin Elmer catalog number 6005177) using a cell harvester (Perkin Elmer). Plates were washed 6 times with 300 μL per well of a 75 mM phosphoric acid solution and the bottom of the plates was sealed. 40 μL/well of Microscint-20 was added, the top of the plates was sealed and readout was performed using the Topcount (Perkin Elmer). Kinase activity was calculated by subtracting counts per min (cpm) obtained in the presence of a positive control inhibitor (10 μM staurosporine) from cpm obtained in the presence of vehicle. The ability of a test compound to inhibit this activity was determined as: Percentage inhibition=((cpm determined for sample with test compound present−cpm determined for sample with positive control inhibitor)divided by(cpm determined in the presence of vehicle−cpm determined for sample with positive control inhibitor))*100.
Dose dilution series were prepared for the compounds enabling the testing of dose-response effects in the JAK3 assay and the calculation of the IC50 for each compound. Each compound was routinely tested at concentration of 20 μM followed by a ⅕ serial dilution, 10 points in a final concentration of 1% DMSO. When potency of compound series increased, more dilutions were prepared and/or the top concentration was lowered (e.g. 5 μM, 1 μM).

T2 sequence (O60674 808-1132): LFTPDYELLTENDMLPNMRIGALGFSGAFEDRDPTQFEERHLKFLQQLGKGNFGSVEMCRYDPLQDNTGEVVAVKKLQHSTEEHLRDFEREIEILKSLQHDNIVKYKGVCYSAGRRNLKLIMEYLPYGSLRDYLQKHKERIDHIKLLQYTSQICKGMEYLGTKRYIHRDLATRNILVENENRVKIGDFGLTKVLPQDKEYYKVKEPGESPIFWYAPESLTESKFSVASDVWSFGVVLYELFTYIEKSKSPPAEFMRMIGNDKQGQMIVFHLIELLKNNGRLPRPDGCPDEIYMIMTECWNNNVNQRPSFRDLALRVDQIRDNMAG
T1 sequence (P23458 866-1154): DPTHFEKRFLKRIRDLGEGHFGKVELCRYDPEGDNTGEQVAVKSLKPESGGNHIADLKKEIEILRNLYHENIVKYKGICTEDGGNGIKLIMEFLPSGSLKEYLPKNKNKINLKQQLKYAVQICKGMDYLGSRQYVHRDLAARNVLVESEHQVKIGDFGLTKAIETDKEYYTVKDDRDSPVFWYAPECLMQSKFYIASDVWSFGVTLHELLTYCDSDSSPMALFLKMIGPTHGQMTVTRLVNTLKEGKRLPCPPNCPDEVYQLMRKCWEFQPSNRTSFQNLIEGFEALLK
T3 sequence (P52333 795-1124): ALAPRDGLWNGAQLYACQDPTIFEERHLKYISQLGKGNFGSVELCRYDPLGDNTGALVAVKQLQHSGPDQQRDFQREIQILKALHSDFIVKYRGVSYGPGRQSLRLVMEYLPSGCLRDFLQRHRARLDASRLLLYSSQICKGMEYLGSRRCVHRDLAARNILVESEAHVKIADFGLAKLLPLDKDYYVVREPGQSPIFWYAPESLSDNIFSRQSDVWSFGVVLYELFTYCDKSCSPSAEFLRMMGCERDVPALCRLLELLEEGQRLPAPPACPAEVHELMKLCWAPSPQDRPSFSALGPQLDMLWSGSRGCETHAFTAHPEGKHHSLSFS

IC50 (Recombinant human JAK1) [nM] | IC50 (Recombinant human JAK2) [nM] | IC50 [1] [nM] | SMILES
101 to 500 | 101 to 500 |  | CC(=O)Nc1cc2c(-c3ccc(C(=O)N4C[C@@H](C)O[C@@H](C)C4)cc3)cccn2n1 [Compound 39, N-(4-(4-((2S,6R)-2,6-dimethylmorpholine-4-carbonyl)phenyl)pyrazolo[1,5-a]pyridin-2-yl)acetamide]
101 to 500 | 101 to 500 |  | CC(=O)Nc1cc2c(-c3ccc(C(=O)N4CCCCC4)cc3)cccn2n1 [Compound 40, N-(4-(4-(piperidine-1-carbonyl)phenyl)pyrazolo[1,5-a]pyridin-2-yl)acetamide]
101 to 500 | 101 to 500 |  | CC(=O)Nc1cc2c(-c3ccc(C(=O)N4CC(F)(F)C4)cc3)cccn2n1 [Compound 41, N-(4-(4-(3,3-difluoroazetidine-1-carbonyl)phenyl)pyrazolo[1,5-a]pyridin-2-yl)acetamide]
501 to 1000 | 101 to 500 |  | CC(=O)Nc1cc2c(-c3ccc(C(=O)N4CCOCC4)cc3)cccn2n1 [Compound 42, N-(4-(4-(morpholine-4-carbonyl)phenyl)pyrazolo[1,5-a]pyridin-2-yl)acetamide]

Second part, the compound before the results:

SMILES | IC50 (Recombinant human JAK1) [nM] | IC50 (Recombinant human JAK2) [nM] | IC50 [1] [nM]
O=C(Nc1nn2cccc(-c3ccc(C(=O)N4CCCCC4)cc3)c2c1Cl)C1CC1 [Compound 16, N-(3-chloro-4-(4-(piperidine-1-carbonyl)phenyl)pyrazolo[1,5-a]pyridin-2-yl)cyclopropanecarboxamide] | 101 to 500 | > 1000 | 
COC(=O)N1CCN(Cc2ccc(-c3cccn4nc(NC(C)=O)cc34)cc2)CC1 [Compound 22] | 101 to 500 | 101 to 500 | 
CC(=O)Nc1cc2c(-c3cnc(OCCn4cccn4)c(F)c3)cccn2n1 [Compound 30] | 101 to 500 | 101 to 500 | 
CC(=O)Nc1cc2c(-c3ccc(C(=O)N4COCC4(C)C)cc3)cccn2n1 [Compound 31, N-(4-(4-(4,4-dimethyloxazolidine-3-carbonyl)phenyl)pyrazolo[1,5-a]pyridin-2-yl)acetamide] | 101 to 500 | 101 to 500 | 
CC(=O)Nc1cc2c(-c3ccc(C(=O)N4CCC4)cc3)cccn2n1 [Compound 32, N-(4-(4-(azetidine-1-carbonyl)phenyl)pyrazolo[1,5-a]pyridin-2-yl)acetamide] | 101 to 500 | 101 to 500 | 
CC(=O)Nc1cc2c(-c3ccc(CC(=O)N4CCC4)cc3)cccn2n1 [Compound 33, N-(4-(4-(2-(azetidin-1-yl)-2-oxoethyl)phenyl)pyrazolo[1,5-a]pyridin-2-yl)acetamide] | 101 to 500 | 101 to 500 | > 1000
CC(=O)Nc1cc2c(-c3ccc(CC(=O)N4C[C@@H](C)O[C@@H](C)C4)cc3)cccn2n1 [Compound 37, N-(4-(4-(2-((2S,6R)-2,6-dimethylmorpholino)-2-oxoethyl)phenyl)pyrazolo[1,5-a]pyridin-2-yl)acetamide] | > 1000 | 101 to 500 | 

Source: patent US8975406B2, “Compound useful for the treatment of degenerative and inflammatory diseases” (Galapagos N.V., priority 2011, dated 2015)
